System: tracheal smooth muscle
Assay: Dilating action to contraction of tracheal smooth muscle (potassium chloride-induced contraction of isolated trachea segment, Magnus tube)
Assay type: cell-based
Conditions: 30 μM test substance, contraction induced by 72.7 mM potassium chloride, guinea pig (Hartley, male) trachea segment; for inhibition at 30 µM: Cavia porcellus, read-out: Activity (suppressing rate for contraction by potassium chloride)
Method: Each sample is tested by using two segment obtained from one animal; the trachea was removed from a guinea pig (Hartley, male, seven weeks age) and was made the segment, 6 mm in length. The segment was suspended in a Magnus tube containing a physiological salt solution of 37° C. with a flow of mixed gas consisting of 95% oxygen and 5% carbon dioxide gas. A base-line tension of 1 g was applied to the segment and, after tension of the sample became stable, the solution was exchanged with a solution containing 72.7 mM of potassium chloride to induce a contraction. When tension of the contraction by potassium chloride became stable, a compound of the formula (1) was added as a test substance to measure the change in the tension. The test substance was dissolved in dimethyl sulfoxide and added thereto. Incidentally, at the stage of addition, the final concentration of dimethyl sulfoxide was made not more than 0.3%. Changes in the tension was recorded on a recorder (R-64V, Rika Denki) after introducing to an amplifier for strain pressure (AP-621G, Nippon Koden Kogyo) via an FD pickup transducer (TB-611T, Nippon Koden Kogyo). Tension before addition of potassium chloride was set as 0 while that after addition of potassium chloride was set as 100 and the suppressing rate for contraction by potassium chloride after addition of the test substance was expressed by a relative percentage whereby the activity was determined according to the following criteria.
The Compound No. in the table is the same as that in the Production Examples.

Row | Molecule | inhibition at 30 µM [%] | Activity (suppressing rate for contraction by potassium chloride)
1 | O=C(O)Cc1ccc2c(c1)CCc1c(O)cc(O)cc1O2 [Compound 97, 7,9-dihydroxy-10,11-dihydrodibenzo[b,f]oxepin-2-acetic acid] | ≤ 50 | –
2 | O=C1Cc2c(F)cccc2Oc2cc(F)c(F)cc21 [Compound 63, 1,7,8-trifluoro-10,11-dihydrodibenz[b,f]oxepin-10-one] | ≥ 50 | –
3 | O=C1Cc2cc([N+](=O)[O-])ccc2Oc2cc(O)cc(O)c21 [Compound 70, 2-nitro-7,9-dihydroxy-10,11-dihydrodibenz[b,f]oxepin-10-one] | ≥ 50 | –
4 | Oc1cc(O)c2c(c1)Oc1cc(F)ccc1CC2 [Compound 24, 7-fluoro-10,11-dihydrodibenz[b,f]oxepin-1,3-diol] | ≥ 50 | –
5 | Oc1cc(O)c2c(c1)Oc1ccc(C(F)(F)F)cc1CC2 [Compound 39, 8-trifluoromethyl-10,11-dihydrodibenz[b,f]oxepin-1,3-diol] | ≥ 50 | –
6 | CCC(=O)c1ccc2c(c1)CCc1c(O)cc(O)cc1S2 [Compound 91, 8-propionyl-10,11-dihydrodibenzo[b,f]thiepin-1,3-diol] | ≥ 50 | –
7 | Oc1cc(O)c2c(c1)Oc1ccc(Cl)cc1CC2 [Compound 20, 8-chloro-10,11-dihydrodibenz[b,f]oxepin-1,3-diol] | ≤ 50 | –
8 | Nc1ccc2c(c1)CC(=O)c1c(O)cc(O)cc1O2 [Compound 71, 2-amino-7,9-dihydroxy-10,11-dihydrodibenz[b,f]oxepin-10-one] | ≥ 50 | –
9 | Oc1cc(O)c2c(c1)Oc1cc(Cl)ccc1CC2 [Compound 16, 7-chloro-10,11-dihydrodibenz[b,f]oxepin-1,3-diol] | ≤ 50 | –
10 | O=C1Cc2ccccc2Oc2c1ccc(O)c2O [Compound 8, 6,7-dihydroxy-10,11-dihydrodibenz[b,f]oxepin-10-one] | ≤ 50 | –
11 | O=C1Cc2cc(F)ccc2Oc2cc(O)cc(O)c21 [Compound 29, 2-fluoro-7,9-dihydroxy-10,11-dihydrodibenz[b,f]oxepin-10-one] | ≥ 50 | –
12 | CC(=O)c1ccc2c(c1)CCc1c(O)cc(O)cc1S2 [Compound 86, 8-acetyl-10,11-dihydrodibenzo[b,f]thiepin-1,3-diol] | ≥ 50 | –
13 | Oc1cc(O)c2c(c1)Oc1ccccc1CC2 [Compound 12, 10,11-dihydrodibenz[b,f]oxepin-1,3-diol] | ≥ 50 | –
14 | CCC(=O)c1c(O)c2c(c(C(=O)CC)c1O)Sc1ccccc1CC2 [Compound 89, 2,4-dipropionyl-10,11-dihydrodibenzo[b,f]thiepin-1,3-diol] | ≥ 50 | –
15 | O=C1Cc2cc(Cl)ccc2Oc2cc(O)cc(O)c21 [Compound 19, 2-chloro-7,9-dihydroxy-10,11-dihydrodibenz[b,f]oxepin-10-one] | ≥ 50 | –
16 | Cc1ccc2c(c1)CC(=O)c1cc(O)c(O)cc1S2 [Compound 104, 7,8-dihydroxy-2-methyl-10,11-dihydrodibenzo[b,f]thiepin-10-one] | ≥ 50 | –
17 | Nc1ccc2c(c1)CCc1c(O)cc(O)cc1O2 [Compound 77, 8-amino-10,11-dihydrodibenz[b,f]oxepin-1,3-diol] | ≤ 50 | –
18 | O=C1Cc2cccc(Cl)c2Oc2cc(O)cc(O)c21 [Compound 36, 4-chloro-7,9-dihydroxy-10,11-dihydrodibenz[b,f]oxepin-10-one] | ≥ 50 | –
19 | O=C1Cc2cc(C#CCO)ccc2Oc2cc(O)cc(O)c21 [Compound 114] | ≥ 50 | –
20 | O=C1Cc2cc(C#CCCCO)ccc2Oc2cc(O)cc(O)c21 [Compound 116, 2-(5-hydroxy-1-pentynyl)-7,9-dihydroxy-10,11-dihydrodibenzo[b,f]oxepin-10-one] | ≥ 50 | –
21 | Oc1cc(O)c2c(c1)Oc1ccc(F)cc1CC2 [Compound 30, 8-fluoro-10,11-dihydrodibenz[b,f]oxepin-1,3-diol] | ≥ 50 | –
22 | CC(=O)c1c(O)cc(O)c2c1Oc1ccccc1CC2 [Compound 47, 4-acetyl-10,11-dihydrodibenz[b,f]oxepin-1,3-diol] | ≥ 50 | –
23 | O=C1Cc2ccc(Cl)c(Cl)c2Oc2cc(O)cc(O)c21 [Compound 27, 3,4-dichloro-7,9-dihydroxy-10,11-dihydrodibenz[b,f]oxepin-10-one] | ≥ 50 | –
24 | 2-thiomethyl-7,9-dihydroxy-10,11-dihydrodibenzo[b,f]oxepin-10-one S-oxide [Compound 109] | – | − (no suppressing action of not less than 50% was achieved at 30 μM)
25 | Oc1cc2c(cc1O)Sc1ccccc1CC2 [Compound 44, 10,11-dihydrodibenz[b,f]thiepin-2,3-diol] | ≥ 50 | –

Row | Molecule | inhibition at 30 µM [%] | Activity (suppressing rate for contraction by potassium chloride)
26 | CC(=O)Nc1ccc2c(c1)CC(=O)c1c(O)cc(O)cc1O2 [Compound 94, N-acetyl-2-amino-7,9-dihydroxy-10,11-dihydrodibenzo[b,f]oxepin-10-one] | ≥ 50 | –
27 | O=C1Cc2ccccc2Oc2c(O)ccc(O)c21 [Compound 7, 6,9-dihydroxy-10,11-dihydrodibenz[b,f]oxepin-10-one] | ≥ 50 | –
28 | CSc1ccc2c(c1)CC(=O)c1c(O)cc(O)cc1O2 [Compound 108, 2-thiomethyl-7,9-dihydroxy-10,11-dihydrodibenzo[b,f]oxepin-10-one] | ≥ 50 | –
29 | O=C1Cc2ccccc2Oc2cc(O)c(O)c(O)c21 [Compound 9, 7,8,9-trihydroxy-10,11-dihydrodibenz[b,f]oxepin-10-one] | ≤ 50 | –
30 | O=C1Cc2cc(Cl)cc(Cl)c2Oc2cc(O)cc(O)c21 [Compound 34, 2,4-dichloro-7,9-dihydroxy-10,11-dihydrodibenz[b,f]oxepin-10-one] | ≥ 50 | –
31 | Oc1cc(O)c2c(c1)Oc1c(Cl)cccc1CC2 [Compound 37, 6-chloro-10,11-dihydrodibenz[b,f]oxepin-1,3-diol] | ≥ 50 | –
32 | CC(=O)c1c(O)c2c(c(C(C)=O)c1O)Sc1ccccc1CC2 [Compound 84, 2,4-diacetyl-10,11-dihydrodibenzo[b,f]thiepin-1,3-diol] | ≥ 50 | –
33 | Oc1cc(O)c2c(c1)Oc1c(Cl)cc(Cl)cc1CC2 [Compound 35, 6,8-dichloro-10,11-dihydrodibenz[b,f]oxepin-1,3-diol] | ≤ 50 | –
34 | CCc1ccc2c(c1)CC(=O)c1c(O)cc(OC)cc1O2 [Compound 111, 2-ethyl-9-hydroxy-7-methoxy-10,11-dihydrodibenzo[b,f]oxepin-10-one] | ≥ 50 | –
35 | O=C1Cc2ccc(F)cc2Oc2cc(O)cc(O)c21 [Compound 23, 3-fluoro-7,9-dihydroxy-10,11-dihydrodibenz[b,f]oxepin-10-one] | ≥ 50 | –
36 | O=C1Cc2cc(C#CCCO)ccc2Oc2cc(O)cc(O)c21 [Compound 115, 2-(4-hydroxy-1-butynyl)-7,9-dihydroxy-10,11-dihydrodibenzo[b,f]oxepin-10-one] | ≥ 50 | –
37 | CC(=O)c1ccc2c(c1)C=Cc1cc(O)c(O)cc1S2 [Compound 92, 8-acetyldibenzo[b,f]thiepin-2,3-diol] | ≥ 50 | –
38 | Oc1cc(O)c2c(c1)Oc1c(ccc(Cl)c1Cl)CC2 [Compound 28, 6,7-dichloro-10,11-dihydrodibenz[b,f]oxepin-1,3-diol] | ≤ 50 | –
39 | O=C1Cc2ccccc2Oc2cc(O)c(O)cc21 [Compound 13, 7,8-dihydroxy-10,11-dihydrodibenz[b,f]oxepin-10-one] | ≤ 50 | –
40 | Oc1cc2c(cc1O)Oc1ccccc1CC2 [Compound 14, 10,11-dihydrodibenz[b,f]oxepin-2,3-diol] | ≤ 50 | –
41 | CC(=O)c1ccc2c(c1)CCc1c(O)cc(O)cc1O2 [Compound 95, 8-acetyl-10,11-dihydrodibenzo[b,f]oxepin-1,3-diol] | ≥ 50 | –
42 | O=C1Cc2c(F)cccc2Oc2cc(O)cc(O)c21 [Compound 49, 1-fluoro-7,9-dihydroxy-10,11-dihydrodibenz[b,f]oxepin-10-one] | ≥ 50 | –
43 | O=C1Cc2ccc(Cl)cc2Oc2cc(O)cc(O)c21 [Compound 15, 3-chloro-7,9-dihydroxy-10,11-dihydrodibenz[b,f]oxepin-10-one] | ≥ 50 | –
44 | CC(C)c1ccc2c(c1)CC(=O)c1cc(O)c(O)cc1S2 [Compound 106, 7,8-dihydroxy-2-(2-propyl)-10,11-dihydrodibenzo[b,f]thiepin-10-one] | ≥ 50 | –
45 | O=C1Cc2ccccc2Oc2c(O)c(O)cc(O)c21 [Compound 2, 6,7,9-trihydroxy-10,11-dihydrodibenz[b,f]oxepin-10-one] | ≤ 50 | –
46 | CCc1ccc2c(c1)CC(=O)c1c(O)cc(O)cc1O2 [Compound 112, 2-ethyl-7,9-dihydroxy-10,11-dihydrodibenzo[b,f]oxepin-10-one] | ≥ 50 | –
47 | CC(O)c1ccc2c(c1)CCc1c(O)cc(O)cc1O2 (stereo not shown) [Compound 96, 8-(1-hydroxyethyl)-10,11-dihydrodibenzo[b,f]oxepin-1,3-diol] | ≥ 50 | –
48 | O=C1Cc2cc(Br)ccc2Oc2cc(O)cc(O)c21 [Compound 110, 2-bromo-7,9-dihydroxy-10,11-dihydrodibenzo[b,f]oxepin-10-one] | ≥ 50 | –
49 | O=C1Cc2cc(O)c(O)cc2Oc2cc(O)cc(O)c21 [Compound 40, 2,3,7,9-tetrahydroxy-10,11-dihydrodibenz[b,f]oxepin-10-one] | ≤ 50 | –
